Laboratory results taken from US20250026733A1, “DEUTERATED ANALOGS OF PYROLE INHIBITORS OF ERK, SYNTHESIS THEREOF AND INTERMEDIATES THERETO” (BIOMED VALLEY DISCOVERIES, INC., priority 2022, published 2025).
Read-outs that look alike come from different tables or passages of the source. Marks after values point to notes of the source that are not given here.

Columns and labels:
[1] = Pharmacokinetics and metabolite formation in rats; assay type: in vivo, rat; details: rat, in vivo; for AUC(0-t) / half-life: both sexes, po, 12.5 mg/kg; for AUC0-12 M2, percent change relative to Ulixertinib / AUC0-12 M3, percent change relative to Ulixertinib / AUC0-12 M6, percent change relative to Ulixertinib / AUC0-12 Parent, percent change relative to Ulixertinib / Half-life, percent change relative to Ulixertinib / longer mean half-life than ulixertinib: both
Description: Ulixertinib, Formulas 18A, 19A, and 21A were dosed twice daily (12 hours apart, ±30 minutes) for five consecutive days (10 doses/animal) to rats via oral gavage (PO). Each compound was administered at a dose of 12.5 mg/kg to 6 rats (3 male/3 female, N=6 rats/compound). Each compound was formulated in 1% (w/v) carboxymethylcellulose (CMC) in water at a concentration of 1.25 mg/mL. Following the second (p.m.) dose on Day 5, blood samples were collected from each rat at approximately 0.5, 1, 2, 4, 6, 8, and 12 hours post-dose. Blood samples were centrifuged to obtain plasma. Plasma samples were analyzed for concentrations of the dosed compounds and selected metabolites using an established LC-MS/MS method. The lower limit of quantitation of each compound was 1.00 ng/mL. The rat half-life values (determined by non-compartmental analysis using WinNonlin software) for each compound are shown in Table 7, and the areas under curve from time 0 to hour 12 (AUC0-12), calculated using the linear trapezoidal rule, for each dosed compound and selected metabolites are presented in Table 8.

[2] = Steady-state exposure of ulixertinib and metabolites in human subjects; assay type: in vivo; details: for % of total Ulixertinib related exposure: day 15, steady state; for AUC at 15 day: in vivo, day 15, non-isotopically enriched ulixertinib and related metabolites, read-out: Steady-State AUC (Mean ± SD)
Source text: (§1) The steady state exposure levels of non-isotopically enriched parent ulixertinib and related metabolites in rat (day 5) and human subjects (day 15) is provided in TABLE 1 below: […]

[3] = Steady-state exposure of ulixertinib and metabolites in rat; assay type: in vivo; details: for % of total Ulixertinib related exposure: day 5, steady state; for AUC at 5 day: in vivo, day 5, non-isotopically enriched ulixertinib and related metabolites, read-out: Steady-State AUC (Mean ± SD)
Source text: as §1

[4] = test system: A375 cells; assay: A375 proliferation assay (Cell TiterGlo); assay type: cell-based; details: Homo sapiens, A-375, 72 hours
Description: Mechanism of Action (MOA) Cell Assay—A375 Cell Proliferation, pERK/ERK and pRSK/RSK Analysis:
Briefly, A375 cells were plated at 10,000 cells/well in three 96 well plates. Plates were incubated overnight at 37° C. and allowed to recover. Cells were washed with 150 μL of DPBS and 90 μL of fresh media was added to each well. The cells were then treated with a dose response of the selected compounds. Compounds were diluted from stock concentrations (10 mM in DMSO). Serial dilutions were made in DMSO, yielding 8 total different concentrations per compound. At time of compound addition, the control plate was analyzed using Cell TiterGlo to set baseline for proliferation. Compound treated cells were allowed to grow at 37° C./5% CO2 for 72 hours then analyzed using Cell TiterGlo according to kit protocol.

[5] = test system: phospho-ERK1/2 to total ERK1/2 in A375 cells; assay: A375 pERK/ERK dose response study (MSD); assay type: cell-based; details: Homo sapiens, A-375, ratio of phospho-ERK1/2 to total ERK1/2
Description: A375 pERK/ERK Dose Response Study:
Briefly, A375 cells were plated at 30,000 cells/well in 2×96 well plates, allowed to recover overnight, washed and fed fresh media the next day then treated with a dose response of the selected compounds. Following the determined pretreatment time with the compounds at 37° C./5% CO2, the media was aspirated, and cells lysed with cold, complete MESO Scale Discovery (MSD) lysis buffer. pERK and total ERK1/2 levels were measured using MESO Scale Discover Phospho(Thr202/Tyr204; Thr185/Tyr187)/Total ERK1/2 kits. The protocol and all reagents were provided in the kit. All wells were blocked with 150 μl Blocking Solution for one hour. […] of lysis buffer was added per well and incubated overnight at 4° C. Following the overnight incubation, the wells were washed three times with Tris Wash buffer, then […] of 1× Detection Antibody was added per well and incubated at room temperature for one hour with vigorous shaking. All wells were then washed three times with Tris Wash Buffer before 150 μl of 1× Read Buffer was added per well and the plates read using the MSD Sector Imager. Data were calculated as a ratio of phospho-ERK1/2 to total ERK1/2 to allow for normalization of the samples.

[6] = Half-life determination in human liver microsomes; assay type: in vitro ADME; details: for half-life at 1 μM: human, NADPH
Description: Human microsomes from a pool of 10 donors was obtained from a commercial source. Microsomes prepared in potassium phosphate buffer were spiked with ulixertinib, Formula 18, Formula 19, and Formula 21 individually in replicates of six at a final concentration of 1 μM. NADPH was used to initiate the experiment; a control of minus NADPH (minus cofactor) was also run in parallel to the human liver microsome stability. After spiking with test article, microsome replicates were placed in a 37° C. incubator with the following time course: 0, 5, 10, 15, 20, 30, 45 and 60 minutes. Samples were extracted with a protein precipitation quench consisting of ice cold acetonitrile containing internal standard (tolbutamide). Samples were analyzed for ulixertinib, Formula 18, Formula 19, and Formula 21. The half-lives of ulixertinib, Formula 18, Formula 19, and Formula 21 were characterized by the […] to determine the elimination rate (ke) and using the formula described below.
[formula] • ke (elimination rate): the slope of ln(percent remaining) vs time (in minutes)

[7] = test system: pRSK/RSK in A375 cells; assay: A375 pRSK/RSK dose response study (ELISA); assay type: cell-based; details: Homo sapiens, A-375, pRSK and total RSK ELISA
Description: A375 pRSK/RSK Dose Response Study
Briefly, A375 cells were plated at 30,000 cells/well in 2×96 well plates, allowed to recover overnight, washed and fed fresh media the next day then treated with a dose response of the selected compounds. Following the determined pretreatment with the compounds at 37° C./5% CO2 the media was aspirated, and cells lysed with cold, complete MSD lysis buffer. pRSK and total RSK were analyzed using CST/PathScan pRSK and total RSK ELISAS according to the respective kit protocols. All samples were analyzed at 90% of remaining sample in pRSK and 10% of remaining sample in total RSK ELISA, which was performed following kit protocols.

Row | AUC(0-t) [1] | half-life [1] | AUC0-12 M2, percent change relative to Ulixertinib [1] | AUC0-12 M3, percent change relative to Ulixertinib [1] | AUC0-12 M6, percent change relative to Ulixertinib [1] | AUC0-12 Parent, percent change relative to Ulixertinib [1] | Half-life, percent change relative to Ulixertinib [1] | longer mean half-life than ulixertinib [1] | % of total Ulixertinib related exposure [2] | AUC at 15 day [2] | % of total Ulixertinib related exposure [3] | AUC at 5 day [3] | Compound | further results
1 | 199000 ng·h/mL | 4 h | (−17%^a) | (−84%^a) | (−35%) | (+15%^a) | (+9%^a) | 9% | – | – | – | – | Cl.[2H]C([2H])([2H])C(Nc1cc(-c2c[nH]c(C(=O)N[C@H](CO)c3cccc(Cl)c3)c2)c(Cl)cn1)C([2H])([2H])[2H] [Formula 19A] | –
2 | – | – | – | – | – | – | – | – | 8.2% | 6500 ± 5500 ng·h/mL | 0.2% | 400 ± 200 ng·h/mL | C[C@H](Nc1cc(-c2c[nH]c(C(=O)N[C@H](CO)c3cccc(Cl)c3)c2)c(Cl)cn1)C(=O)O [Formula 37] | –
3 | 228000 ng·h/mL | 4.18 h | (−4%^a) | (−75%^a) | (+25%^a) | (+32%^a) | (+14%^a) | 14% | – | – | – | – | Cl.[2H]C([2H])([2H])C([2H])(Nc1cc(-c2c[nH]c(C(=O)N[C@H](CO)c3cccc(Cl)c3)c2)c(Cl)cn1)C([2H])([2H])[2H] [Formula 18A] | –
4 | – | – | – | – | – | – | – | – | 4.3% | 3400 ± 2300 ng·h/mL | 0.6% | 1200 ± 200 ng·h/mL | C[C@@H](CO)Nc1cc(-c2c[nH]c(C(=O)N[C@H](CO)c3cccc(Cl)c3)c2)c(Cl)cn1 [Formula 35] | –
5 | – | – | – | – | – | – | – | – | – | – | – | – | [2H]C(C)(C)Nc1cc(-c2c[nH]c(C(=O)N[C@H](CO)c3cccc(Cl)c3)c2)c(Cl)cn1 [Formula 21, 4-(5-chloro-2-((propan-2-yl-2-d1)amino)pyridin-4-yl)-N-(1-(3-chlorophenyl)-2-hydroxyethyl)-1H-pyrrole-2-carboxamide] | IC50 [4]: 310 nM; IC50 [5]: 64 nM; longer half-life than ulixertinib ([6]; Table 5): 30%; half-life at 1 μM ([6]; Rep 1, read-out: Half-life, t½, Rep 1): 1.01 h; half-life at 1 μM ([6]; Rep 2, read-out: Half-life, t½, Rep 2): 1.26 h; half-life at 1 μM ([6]; Rep 3, read-out: Half-life, t½, Rep 3): 1.07 h; half-life at 1 μM ([6]; Rep 4, read-out: Half-life, t½, Rep 4): 1.02 h; half-life at 1 μM ([6]; Rep 5, read-out: Half-life, t½, Rep 5): 0.992 h; half-life at 1 μM ([6]; Rep 6, read-out: Half-life, t½, Rep 6): 1.01 h; half-life at 1 μM ([6]; six replicates, read-out: Half-life, t½, Mean ± SD): 1.06 ± 0.102 h; Half-life, % change relative to ulixertinib ([6]; mean): (+30%); IC50 [7]: 37 nM
6 | – | – | – | – | – | – | – | – | 49.9% | 39400 ± 12000 ng·h/mL | 8.1% | 15900 ± 4700 ng·h/mL | C[C@H](CO)Nc1cc(-c2c[nH]c(C(=O)N[C@H](CO)c3cccc(Cl)c3)c2)c(Cl)cn1 [Formula 34] | Formula 34/Ulixertinib steady-state AUC ratio ([2]; day 15): 1.3; Formula 34/Ulixertinib steady-state AUC ratio ([3]; day 5): 0.09
